Reference: the supplement of paper PMC10307832

Legend:
Assay in all cases: relative viability (nuclei count vs DMSO), 5 days (fraction); higher = more cells survive
[1] = compound: Nc1ccccc1NC(=O)c1ccc(CNC(=O)OCc2cccnc2)cc1 [Entinostat] + C[C@]1(O)C[C@@H](c2nc(-c3ccc4ccc(-c5ccccc5)nc4c3)c3c(N)nccn32)C1 [Linsitinib] (partner 1 µM)
In short: (§1)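 After 5 days of treatment, lung cancer cells in 1536-well plates were fixed and stained in a single step (final 0.05% Triton X-100, 1% formaldehyde, 1 ug/ml Hoechst) and their nuclei counted on 4× images. Treatment had been applied by pin tool the day after seeding as one drug alone or as a fixed anchor-drug dose with five library-drug doses (not always all listed) in √10 steps. Relative viability is the nuclei count of treated wells divided by that of vehicle wells, and values are medians of duplicate plates.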

[2] = compound: Nc1ccccc1NC(=O)c1ccc(CNC(=O)OCc2cccnc2)cc1 [Entinostat] + CC1(C)CCC(c2ccc(Cl)cc2)=C(CN2CCN(c3ccc(C(=O)NS(=O)(=O)c4ccc(N[C@H](CCN5CCOCC5)CSc5ccccc5)c(S(=O)(=O)C(F)(F)F)c4)cc3)CC2)C1 [Navitoclax] (partner 0.5 µM)
In short: as §1

[3] = compound: C1COCCN1C2=NC(=NC3=C2OC4=C3C=CC=N4)C5=CC(=CC=C5)NC(=O)C6=CN=C(C=C6)N + CS(=O)(=O)N1CCN(Cc2cc3nc(-c4cccc5[nH]ncc45)nc(N4CCOCC4)c3s2)CC1 [Pictilisib] (partner 1 µM)
In short: as §1

[4] = compound: C1COCCN1C2=NC(=NC3=C2OC4=C3C=CC=N4)C5=CC(=CC=C5)NC(=O)C6=CN=C(C=C6)N + CC(=O)c1c(C)c2cnc(Nc3ccc(N4CCNCC4)cn3)nc2n(C2CCCC2)c1=O [Palbociclib] (partner 0.5 µM)
In short: as §1

| Cell Line | relative viability ([1]; first compound 0.02 µM) | relative viability ([1]; first compound 0.06325 µM) | relative viability ([1]; first compound 0.2 µM) | relative viability ([1]; first compound 0.6325 µM) | relative viability ([1]; first compound 2 µM) | relative viability ([2]; first compound 0.02 µM) | relative viability ([2]; first compound 0.06325 µM) | relative viability ([2]; first compound 0.2 µM) | relative viability ([2]; first compound 0.6325 µM) | relative viability ([2]; first compound 2 µM) | relative viability ([3]; first compound 0.02 µM) | relative viability ([3]; first compound 0.06325 µM) | relative viability ([3]; first compound 0.2 µM) | relative viability ([3]; first compound 0.6325 µM) | relative viability ([3]; first compound 2 µM) | relative viability ([4]; first compound 0.02 µM) | relative viability ([4]; first compound 0.06325 µM) | relative viability ([4]; first compound 0.2 µM) | relative viability ([4]; first compound 0.6325 µM) | relative viability ([4]; first compound 2 µM) |
| --- | --- | --- | --- | --- | --- | --- | --- | --- | --- | --- | --- | --- | --- | --- | --- | --- | --- | --- | --- | --- |
| NCI-H1437 | 0.92 | 0.565 | 0.298 | 0.151 | 0.113 | 1.01 | 0.679 | 0.432 | 0.216 | 0.155 | 0.357 | 0.483 | 0.41 | 0.362 | 0.337 | 0.3 | 0.312 | 0.269 | 0.295 | 0.2 |
| EKVX | 0.896 | 1.01 | 0.79 | 0.663 | 0.438 | 0.896 | 0.835 | 0.899 | 0.643 | 0.457 | 0.408 | 0.408 | 0.44 | 0.379 | 0.439 | 0.357 | 0.393 | 0.353 | 0.373 | 0.438 |
| NCI-H460 | 0.664 | 0.685 | 0.378 | 0.0221 | 0.0142 | 1.08 | 0.973 | 1.04 | 0.0885 | 0.0187 | 0.411 | 0.384 | 0.255 | 0.355 | 0.294 | 0.149 | 0.186 | 0.112 | 0.146 | 0.0961 |
| NCI-H1993 | 0.642 | 0.832 | 0.673 | 0.65 | 0.661 | 0.869 | 0.857 | 0.789 | 0.841 | 0.73 | 0.76 | 0.708 | 0.861 | 0.791 | 0.85 | 0.683 | 0.72 | 0.543 | 0.632 | 0.467 |
| HCC-78 | 0.496 | 0.395 | 0.306 | 0.156 | 0.151 | 0.739 | 0.652 | 0.498 | 0.218 | 0.181 | 0.179 | 0.211 | 0.289 | 0.16 | 0.0668 | 0.48 | 0.484 | 0.476 | 0.427 | 0.378 |
| NCI-H2087 | 0.815 | 0.733 | 0.779 | 0.559 | 0.481 | 0.785 | 0.853 | 0.724 | 0.586 | 0.337 | 0.881 | 0.848 | 0.876 | 0.807 | 0.642 | 0.211 | 0.223 | 0.235 | 0.219 | 0.194 |
| H3255 | 0.892 | 0.87 | 0.765 | 0.507 | 0.304 | 0.536 | 0.453 | 0.309 | 0.174 | 0.121 | 0.417 | 0.495 | 0.458 | 0.505 | 0.432 | 0.308 | 0.308 | 0.306 | 0.308 | 0.305 |
| NCI-H2126 | 0.732 | 0.707 | 0.618 | 0.518 | 0.367 | 0.849 | 0.833 | 0.855 | 0.548 | 0.396 | 0.455 | 0.524 | 0.486 | 0.521 | 0.442 | 0.297 | 0.367 | 0.345 | 0.388 | 0.36 |
| LCLC-103H | 1.07 | 1.12 | 0.937 | 0.931 | 0.715 | – | – | – | – | – | 0.533 | 0.647 | 0.555 | 0.678 | 0.551 | 0.498 | 0.453 | 0.546 | 0.467 | 0.403 |
| RERF-LC-KJ | 0.912 | 0.766 | 0.885 | 0.536 | 0.239 | 0.679 | 0.905 | 1.13 | 0.414 | 0.314 | 0.46 | 0.618 | 0.508 | 0.507 | 0.478 | 1.04 | 1.15 | 1.21 | 1 | 0.764 |
| EBC-1 | 0.934 | 0.94 | 0.811 | 0.22 | 0.122 | 0.422 | 0.326 | 0.287 | 0.184 | 0.15 | 0.409 | 0.432 | 0.307 | 0.295 | 0.293 | – | – | – | – | – |
| HCC-15 | 0.82 | 0.8 | 0.713 | 0.546 | 0.319 | 0.753 | 0.699 | 0.58 | 0.302 | 0.196 | 0.735 | 0.76 | 0.713 | 0.742 | 0.527 | 0.742 | 0.775 | 0.67 | 0.682 | 0.574 |
| NCI-H1650 | – | – | – | – | – | 1.2 | 1.28 | 1.1 | 0.673 | 0.673 | 0.505 | 0.588 | 0.526 | 0.592 | 0.483 | 0.336 | 0.321 | 0.274 | 0.39 | 0.287 |
| COR-L 105 | 1.01 | 0.974 | 0.876 | 0.491 | 0.341 | 0.771 | 0.911 | 0.738 | 0.407 | 0.333 | 0.433 | 0.351 | 0.389 | 0.344 | 0.33 | 0.413 | 0.403 | 0.371 | 0.363 | 0.359 |
| NCI-H596 | 1.08 | 1.17 | 0.958 | 0.9 | 0.799 | 0.923 | 0.962 | 0.861 | 0.8 | 0.581 | 0.356 | 0.386 | 0.374 | 0.315 | 0.407 | – | – | – | – | – |
| LXF-289 | 0.982 | 0.985 | 0.917 | 0.785 | 0.632 | 0.929 | 0.908 | 0.922 | 0.786 | 0.567 | 0.782 | 0.861 | 0.703 | 0.758 | 0.602 | 0.603 | 0.604 | 0.623 | 0.612 | 0.384 |
| NCI-H1703 | 0.883 | 0.805 | 0.857 | 0.919 | 0.582 | 1.22 | 1.21 | 1.37 | 1.05 | 0.575 | 0.23 | 0.255 | 0.239 | 0.251 | 0.232 | – | – | – | – | – |
